Article PMC9822940, “Antiplasmodial activity, structure–activity relationship and studies on the action of novel benzimidazole derivatives” (Scientific Reports, 2023)
Values joined by “and” are separate entries in the source; they are usually repeats but may differ in a detail not shown here. Equal entries are not always repeated. Where two headings read alike, the source gives them in different places.

Legend:
P. falciparum HB3 strain = experiment: Antiplasmodial activity against P. falciparum HB3 strain in culture; assay type: cell-based, Plasmodium falciparum; settings: for SI (selectivity index): Vero CC50 versus HB3 IC50
Protocol: (§1) In vitro activity of BZ. All BZ derivatives were tested at 10 μM against the HB3 strain of Pf, and for those compounds with a percentage of growth inhibition (% GI) higher than 50%, the IC50 values were determined. In addition, their cytotoxicity on epithelial Vero cell cultures was evaluated to calculate their selectivity indexes (SI), Table 1. An index of 10 or above is expected for a lead compound.
(§2) The chloroquine-sensitive […] and chloroquine-resistance 7G8 strain […] of P. falciparum were used throughout. Infected erythrocytes were kept in culture using the protocol established by Haynes et al.[44], basically utilizing human O^+ erythrocytes kept in an RPMI medium supplemented with glutamine and 10% human serum incubated in an atmosphere of 90% N2, 5% O2 and 5% CO2.

Vero cells = experiment: Cytotoxicity on epithelial Vero cell cultures; assay type: cell-based; settings: Vero cells
Protocol: as §1

[1] = Cytotoxicity on epithelial Vero cell cultures; assay type: cell-based; settings: African green monkey, epithelial Vero cells
Protocol: as §1

[2] = tested on: 7G8 P. falciparum parasites; experiment: Antiplasmodial activity against chloroquine-resistant 7G8 P. falciparum; assay type: cell-based, Plasmodium falciparum; settings: for IC50: Plasmodium falciparum
Source text: The mechanism used by Pf to prevent intoxication with free heme once hemoglobin is degraded is to form hemozoin crystals that capture heme. Mefloquine and other common antimalarials interfere with this pathway, resulting in the death of the parasite.
as §2

[3] = tested on: plasma membrane of parasite culture / erythrocytes; experiment: Propidium iodide incorporation assay (membrane integrity); assay type: cell-based, Plasmodium falciparum; settings: 3 h incubation, fluorometry
Protocol: The integrity of the plasma membrane under the action of certain antiplasmodial compounds was assessed through the use of two methodologies. First, the absorption of propidium iodide, to which intact membranes are impermeable, was measured. Second, the presence of heme in the culture media, which indicates a leakage of the contents of the erythrocyte or its complete lysis (hemolysis), was analyzed.
Figure 3 Membrane integrity tests. BZ 1, 5, 16, 26 and 33 were tested in triplicates in two independent experiments. (a) Incorporation of propidium iodide (PI) was analyzed through fluorometry after 3 h incubation with the compounds. (b) Hemolysis was measured by light absorbance 24 h after exposure to the compounds. One-way ANOVA with Turkey´s comparison was used for analysis of significance. ****p < 0.001.
Manufacturer’s instructions (BD PharmingenTM) were followed. Briefly, 200 µL of parasite culture at 2% parasitemia or uninfected erythrocytes, at 2% hematocrit, were incubated with each compound for 3 h at 37 °C. Untreated samples were cultured in the same plate. After incubation, 2 µL of Propidium Iodide was added and incubated for 15 min at RT while protected from light. Fluorescence was read in a fluorometer at excitation and emission wavelengths of 485/20 and 645/40 nm, respectively.

[4] = tested on: P. falciparum-infected cultures; experiment: Intracellular reactive oxygen species (ROS) production in P. falciparum; assay type: cell-based, Plasmodium falciparum; settings: 1 µM; 0.5, 6 and 9 h
Protocol: Also, the intracellular production of oxygen reactive species (ROS) was monitored for the same antiplasmodial compounds. The level of ROS production was compared between the samples and that of the untreated parasites. […] This would point to the conformation of such molecules targeting a specific molecule or process of the parasite.  Figure 4 Effect of selected benzimidazole derivatives on ROS production. Five potent compounds were incubated with P. falciparum-infected cultures and the production of reactive oxygen species was measured through fluorometry at 0.5, 6 and 9 h after their addition at 1 µM. As positive control, a sample containing hydrogen peroxide at 200 μM was added. Samples were measured in triplicates. One-way ANOVA with Turkey´s comparison was used to measure significance with respect to the untreated control at each different time point. n = 2. (a) BZ 1, (b) BZ 5, (c) BZ 16, (d) BZ 26 and (e) BZ 33. *p < 0.05, **p < 0.01, ***p < 0.005. Intracellular ROS formation was measured in a fluorimeter using the CM-H2DCFDA reactive dye from Molecular Probes® (Eugene OR, USA). Hydrogen peroxide was used as a positive control at a final concentration of 200 µM. The level of ROS present was inferred through the amount of oxidized DCF[45].

[5] = HB3 strain (chloroquine-sensitive), read-out: IC50
[6] = Plasmodium falciparum, HB3 strain (chloroquine-sensitive), read-out: IC50
[7] = Plasmodium falciparum, at 10 μM, HB3 strain, read-out: GI (growth inhibition percentage)

SMILES	IC50 (P. falciparum HB3 strain; [6]) [µM]	GI (growth inhibition percentage) (P. falciparum HB3 strain; at 10 μM, HB3 strain)	inhibition at 10 µM (P. falciparum HB3 strain; [7]) [%]	CC50 [1] [µM]	also measured
Cc1ccc2[nH]c(NC(=O)c3ccc(-c4ccccc4)cn3)nc2c1 [BZ 7]		57.5%			IC50 (P. falciparum HB3 strain; [5]): 7.8 µM; CC50 (Vero cells): 19.5 µM
O=C(Nc1nc2cc(Cl)ccc2[nH]1)c1ncccc1Cl [BZ 14]		11.9%			
O=C(Nc1nc2cc(Cl)ccc2[nH]1)c1ccc2ccccc2n1 [BZ 20]		25.9%			
CCN(CC)CCCC(C)Nc1ccnc2cc(Cl)ccc12 (centres unmarked) [Chloroquine, reference compound]					IC50 (P. falciparum HB3 strain; Plasmodium falciparum, HB3): 0.028 µM; inhibition at 10 µM (P. falciparum HB3 strain; Plasmodium falciparum, HB3, read-out: GI (growth inhibition percentage)): 100%; IC50 ([2]; 7G8, read-out: 7G8 Pf IC50): 0.23 µM
O=C(Nc1nc2cc([N+](=O)[O-])ccc2[nH]1)c1ccccn1 [BZ 29]		96.0%			IC50 (P. falciparum HB3 strain; [5]): 5.1 µM; CC50 (Vero cells): 13.9 µM
Cc1ccc2[nH]c(NC(=O)c3cccnc3)nc2c1 [BZ 2]		inactive and 0.0%			
COc1ccnc(C(=O)Nc2nc3cc(Cl)ccc3[nH]2)c1 [BZ 15, N-(5-Chloro-1H-benzimidazol-2-yl)-4-methoxypicolinamide]	1.5		89.8	2	SI (selectivity index) (P. falciparum HB3 strain): 1.4; melting point: 245 °C
Cc1ccc2[nH]c(NC(=O)c3ccc(C#N)cn3)nc2c1 [BZ 8]		inactive and 37.4%			
Cc1ccc2[nH]c(NC(=O)c3ccncc3)nc2c1 [BZ 3]		inactive and 0.0%			
Cc1cccc(C(=O)Nc2nc3cc(Cl)ccc3[nH]2)n1 [BZ 19]		inactive and 28.0%			
CCCCCCCCC(N)C(=O)Nc1ccc2[nH]c(NC(=O)c3ccccn3)nc2c1 (centres unmarked) [BZ 32]					IC50 (P. falciparum HB3 strain; [5]): 6.8 µM; CC50 (Vero cells): 16.4 µM
COc1ccc2[nH]c(NC(=O)c3ccccn3)nc2c1 [BZ 25]		50.9%			
COc1ccc2[nH]c(NC(=O)c3ccc(-c4ccccc4)cn3)nc2c1 [BZ 28]		72.7%			IC50 (P. falciparum HB3 strain; [5]): 4.4 µM; CC50 (Vero cells): 14.6 µM
Cc1cc2nc(NC(=O)c3ccc(-c4ccccc4)cn3)[nH]c2cc1C [BZ 35]		64.7%			IC50 (P. falciparum HB3 strain; [5]): 7.3 µM; CC50 (Vero cells): 9.7 µM
O=C(Nc1nc2cc(Cl)c(Cl)cc2[nH]1)c1ccccn1 [BZ 36, N-(5,6-Dichloro-1H-benzimidazol-2-yl)picolinamide]	2.4		81.9	11.8	SI (selectivity index) (P. falciparum HB3 strain): 5.0; melting point: 281 °C
Cc1cccnc1C(=O)Nc1nc2cc(Cl)ccc2[nH]1 [BZ 13, N-(5-Chloro-1H-benzimidazol-2-yl)-3-methylpicolinamide]	2.8		87.3	8.6	SI (selectivity index) (P. falciparum HB3 strain): 3.0; melting point: 180 °C
Cc1ccc2[nH]c(NC(=O)c3ccnc4ccccc34)nc2c1 [BZ 10]		60.5%			
Cc1ccc2[nH]c(NC(=O)c3nccc4ccccc34)nc2c1 [BZ 11]		0.0%			
COc1ccc2nc(C(=O)Nc3nc4cc(Cl)ccc4[nH]3)ccc2c1 [BZ 24]		22.3%			
O=C(Nc1nc2cc(Cl)ccc2[nH]1)c1nccc2ccccc12 [BZ 23]		53.7%			
O=C(Nc1nc2cc(Cl)ccc2[nH]1)c1cnc2ccccc2c1 [BZ 21]		0.0%			
CCCCc1ccc(C(=O)Nc2nc3cc(C)c(C)cc3[nH]2)nc1 [BZ 34]		74.2%			IC50 (P. falciparum HB3 strain; [5]): 3.4 µM; CC50 (Vero cells): 3.2 µM
CCCCc1ccc(C(=O)Nc2nc3cc(Cl)ccc3[nH]2)nc1 [BZ 17]		89.7%			IC50 (P. falciparum HB3 strain; [5]): 3.5 µM; CC50 (Vero cells): 3.4 µM
CCCCc1ccc(C(=O)Nc2nc3cc(OC)ccc3[nH]2)nc1 [BZ 27, 5-Butyl-N-(5-methoxy-1H-benzimidazol-2-yl)picolinamide]	1.2		100	8.5	SI (selectivity index) (P. falciparum HB3 strain): 7.4; melting point: 129 °C
CCCCCCCCC(NC(=O)OC(C)(C)C)C(=O)Nc1ccc2[nH]c(NC(=O)c3ccccn3)nc2c1 (centres unmarked) [BZ 31]					IC50 (P. falciparum HB3 strain; [5]): 8.5 µM; CC50 (Vero cells): 26.8 µM
Cc1ccc2[nH]c(NC(=O)c3ccc4ccccc4n3)nc2c1 [BZ 9]		73.1%			IC50 (P. falciparum HB3 strain; [5]): 14.1 µM; CC50 (Vero cells): 63 µM

The next lines start with results.

IC50 (P. falciparum HB3 strain; [6]) [µM]	SMILES	GI (growth inhibition percentage) (P. falciparum HB3 strain; at 10 μM, HB3 strain)	inhibition at 10 µM (P. falciparum HB3 strain; [7]) [%]	CC50 [1] [µM]	also measured
2.5	Cc1ccc2[nH]c(NC(=O)c3ncccc3C)nc2c1 [BZ 4, 3-Methyl-N-(5-methyl-1H-benzimidazol-2-yl)picolinamide]		92.4	6.8	SI (selectivity index) (P. falciparum HB3 strain): 2.8; melting point: 173 °C
2.4	CCCCc1ccc(C(=O)Nc2nc3cc(C)ccc3[nH]2)nc1 [BZ 6, 5-Butyl-N-(5-methyl-1H-benzimidazol-2-yl)picolinamide]		90.9	6.6	SI (selectivity index) (P. falciparum HB3 strain): 2.7; melting point: 245 °C
2.3	O=C(Nc1nc2cc(Cl)ccc2[nH]1)c1ccnc2ccccc12 [BZ 22, N-(5-Chloro-1H-benzimidazol-2-yl)quinoline-4-carboxamide]		88.9	16.1	SI (selectivity index) (P. falciparum HB3 strain): 6.9; melting point: 262 °C
1.8	O=C(Nc1nc2cc(Cl)ccc2[nH]1)c1ccccn1 [BZ 12, N-(5-chloro-1H-benzimidazol-2-yl)picolinamide]		91.4	15.4	SI (selectivity index) (P. falciparum HB3 strain): 8.7; IC50 ([2]; 7G8 strain (chloroquine-resistant), read-out: 7G8 Pf IC50): 3.6 µM; SI (selectivity index) ([2]; Vero CC50 versus 7G8 IC50): 4.2
2.3	O=C(Nc1nc2cc(Cl)ccc2[nH]1)c1ccc(-c2ccccc2)cn1 [BZ 18, N-(5-Chloro-1H-benzimidazol-2-yl)-5-phenylpicolinamide]		99.2	0.6	SI (selectivity index) (P. falciparum HB3 strain): 0.3; melting point: 214 °C
1.5	Cc1ccc(C(=O)Nc2nc3cc(C)ccc3[nH]2)nc1 [BZ 5, 5-Methyl-N-(5-methyl-1H-benzimidazol-2-yl)picolinamide]		100	4.5	Membrane integrity: incorporation of propidium iodide [3]: some permeation in the membrane, although not significant; Intracellular ROS production versus untreated parasites [4]: no significant difference at any point; melting point: 256 °C
